{"source": "patent US9643995B2", "about": "“Triterpene glycoside and triterpene compositions and methods of using same” (Research Foundation of the City University of New York, priority 2013, dated 2017)", "key": {"[1]": {"tested_on": "MCF10F", "assay": "Growth inhibition of nonmalignant mammary epithelial cells by actein", "type": "cell-based, human"}, "[2]": {"tested_on": "activated Her2 (p-Her2)", "assay": "Western blot analysis of activated Her2 protein level", "type": "cell-based", "conditions": "40 μg/ml, 24 h, normalized to β-acetin", "excerpt": "(§1) Effect of actein on the level of Her2 protein: The effect of actein on the level of Her2 and activated Her2 (p-Her2) protein was examined using Western blot analysis. […] The results validate an effect of actein on the Her2 pathway."}, "[3]": {"tested_on": "MDA-MB-453 cells", "assay": "Apoptosis: caspase 3 activity", "type": "cell-based, human", "conditions": "actein 2 μg/ml, Herceptin 16 μg/ml, 48 h"}, "[4]": {"tested_on": "Her2", "assay": "Western blot analysis of Her2 protein level", "type": "cell-based", "conditions": "40 μg/ml, 24 h, normalized to β-acetin", "excerpt": "as §1"}, "[5]": {"tested_on": "calcium channels", "assay": "Calcium release from cells", "type": "cell-based", "conditions": "low concentrations (100 nM); stated as believed mode of action"}, "[6]": {"conditions": "rat, in vivo, 35.7 mg/kg; cited from earlier work"}, "[7]": {"tested_on": "MDA-MB-453 cells", "assay": "Apoptosis: DNA fragmentation", "type": "cell-based, human", "conditions": "actein 2 μg/ml, Herceptin 16 μg/ml, 48 h"}}}
{"molecule": "CC(=O)O[C@@H]1C[C@@]23C[C@@]24CC[C@H](O[C@@H]2OC[C@@H](O)[C@H](O)[C@H]2O)C(C)(C)[C@@H]4CC[C@H]3[C@]2(C)C[C@@H]3O[C@]4(C[C@@H](C)[C@@H]3[C@@]12C)O[C@H](O)[C@@]1(C)O[C@@H]41", "note": "[actein, Actein]", "values": [{"measurement": "IC50", "setting": "[1]", "result": 42, "unit": "µg/mL"}, {"measurement": "level of p-Her2 protein", "setting": "[2]", "result": 0.37, "unit": "fold"}, {"measurement": "caspase 3 activity", "setting": "[3]", "result": "1.29 fold relative to control"}, {"measurement": "level of Her2 protein", "setting": "[4]", "result": 0.72, "unit": "fold"}, {"measurement": "effect on calcium channels", "setting": "[5]", "result": "immediately opens calcium channels and releases calcium from cells"}, {"measurement": "peak serum level", "setting": "[6]", "result": "about 2.4 μg/ml"}, {"measurement": "time of peak serum level", "setting": "[6]", "result": 6, "unit": "h"}, {"measurement": "DNA fragmentation", "setting": "[7]", "result": "0.89 fold relative to control"}]}
